Broadly, the IC50 is the point on the concentration scale where inhibition reaches its midpoint. The low end stands for greater potency in that assay, the high end for weaker potency in that assay.

IC50 data for 1 compound are collected here from ChEMBL document CHEMBL4680187, “Optimization of EphA2 antagonists based on a lithocholic acid core led to the identification of UniPR505, a new 3α-carbamoyloxy derivative with antiangiogenetic properties” (Eur J Med Chem, 2020).

For one test, the target named is T1, Ephrin type-B receptor 3 (Mus musculus, UniProt P54754).
T1 sequence (P54754 whole entry): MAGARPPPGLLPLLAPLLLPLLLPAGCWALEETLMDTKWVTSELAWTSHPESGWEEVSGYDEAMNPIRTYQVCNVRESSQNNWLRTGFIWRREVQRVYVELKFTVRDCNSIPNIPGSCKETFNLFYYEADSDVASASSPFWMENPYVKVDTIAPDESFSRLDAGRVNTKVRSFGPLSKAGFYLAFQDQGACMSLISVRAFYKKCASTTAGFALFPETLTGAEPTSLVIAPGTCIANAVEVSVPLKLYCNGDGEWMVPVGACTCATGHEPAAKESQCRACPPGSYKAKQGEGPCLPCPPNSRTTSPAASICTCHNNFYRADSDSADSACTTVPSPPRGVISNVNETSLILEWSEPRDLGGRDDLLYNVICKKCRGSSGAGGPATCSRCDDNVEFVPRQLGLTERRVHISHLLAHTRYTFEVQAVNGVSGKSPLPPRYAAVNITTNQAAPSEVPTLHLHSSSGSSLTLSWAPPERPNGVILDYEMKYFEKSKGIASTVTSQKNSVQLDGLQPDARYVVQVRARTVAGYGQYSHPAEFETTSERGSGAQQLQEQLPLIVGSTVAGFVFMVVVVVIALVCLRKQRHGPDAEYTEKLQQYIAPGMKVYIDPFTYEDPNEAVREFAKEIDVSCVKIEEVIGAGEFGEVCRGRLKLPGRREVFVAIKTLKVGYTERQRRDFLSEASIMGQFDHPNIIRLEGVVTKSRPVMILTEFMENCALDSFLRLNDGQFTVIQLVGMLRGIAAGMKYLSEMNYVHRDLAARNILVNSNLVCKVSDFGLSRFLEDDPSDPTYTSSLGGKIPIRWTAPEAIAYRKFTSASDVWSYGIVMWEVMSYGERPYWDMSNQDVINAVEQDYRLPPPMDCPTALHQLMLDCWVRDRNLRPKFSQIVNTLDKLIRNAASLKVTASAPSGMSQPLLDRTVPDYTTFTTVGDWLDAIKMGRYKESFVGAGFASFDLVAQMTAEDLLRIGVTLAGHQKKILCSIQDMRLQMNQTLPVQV
Put plainly: Displacement of biotinylated ephrin-B1-Fc from mouse EphB3 Fc preincubated for 1 hr followed by ephrin-B1-FC addition and measured after 4 hrs by ELISA. For orientation: In an ELISA, binding on a coated surface is turned into a signal by an enzyme label.

A further test concerns the target T2, Ephrin type-A receptor 3 (Mus musculus, UniProt P29319).
T2 sequence (P29319 whole entry): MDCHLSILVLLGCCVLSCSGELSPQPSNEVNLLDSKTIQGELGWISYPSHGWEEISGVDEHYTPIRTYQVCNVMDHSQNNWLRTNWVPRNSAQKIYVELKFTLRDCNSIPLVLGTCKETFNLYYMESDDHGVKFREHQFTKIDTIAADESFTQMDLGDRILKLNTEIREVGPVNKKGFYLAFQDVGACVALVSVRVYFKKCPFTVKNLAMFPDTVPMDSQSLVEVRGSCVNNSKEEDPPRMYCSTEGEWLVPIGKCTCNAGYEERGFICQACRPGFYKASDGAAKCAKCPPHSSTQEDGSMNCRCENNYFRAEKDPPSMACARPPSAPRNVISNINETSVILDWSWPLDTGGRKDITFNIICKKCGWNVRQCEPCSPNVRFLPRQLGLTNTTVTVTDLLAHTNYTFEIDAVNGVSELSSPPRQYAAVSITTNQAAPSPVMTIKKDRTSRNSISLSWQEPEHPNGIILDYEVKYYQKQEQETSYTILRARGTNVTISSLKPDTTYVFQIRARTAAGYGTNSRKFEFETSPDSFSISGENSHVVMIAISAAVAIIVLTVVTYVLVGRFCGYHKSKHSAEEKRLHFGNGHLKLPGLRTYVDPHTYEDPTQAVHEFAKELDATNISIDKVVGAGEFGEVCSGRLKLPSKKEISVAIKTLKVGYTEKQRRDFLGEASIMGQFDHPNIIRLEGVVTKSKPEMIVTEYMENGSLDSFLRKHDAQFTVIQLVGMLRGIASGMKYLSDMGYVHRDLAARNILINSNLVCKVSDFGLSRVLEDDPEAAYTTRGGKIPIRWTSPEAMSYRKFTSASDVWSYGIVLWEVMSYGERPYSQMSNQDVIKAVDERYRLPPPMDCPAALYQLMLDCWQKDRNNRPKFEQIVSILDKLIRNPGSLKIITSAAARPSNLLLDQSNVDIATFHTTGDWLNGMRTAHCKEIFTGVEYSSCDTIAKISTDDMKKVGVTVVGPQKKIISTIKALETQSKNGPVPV
Description: Displacement of biotinylated ephrin-A1-Fc from mouse EphA3 Fc preincubated for 1 hr followed by ephrin-A1-FC addition and measured after 4 hrs by ELISA.

The target of the next test is T3, Ephrin type-B receptor 4 (Mus musculus, UniProt P54761).
T3 sequence (P54761 whole entry): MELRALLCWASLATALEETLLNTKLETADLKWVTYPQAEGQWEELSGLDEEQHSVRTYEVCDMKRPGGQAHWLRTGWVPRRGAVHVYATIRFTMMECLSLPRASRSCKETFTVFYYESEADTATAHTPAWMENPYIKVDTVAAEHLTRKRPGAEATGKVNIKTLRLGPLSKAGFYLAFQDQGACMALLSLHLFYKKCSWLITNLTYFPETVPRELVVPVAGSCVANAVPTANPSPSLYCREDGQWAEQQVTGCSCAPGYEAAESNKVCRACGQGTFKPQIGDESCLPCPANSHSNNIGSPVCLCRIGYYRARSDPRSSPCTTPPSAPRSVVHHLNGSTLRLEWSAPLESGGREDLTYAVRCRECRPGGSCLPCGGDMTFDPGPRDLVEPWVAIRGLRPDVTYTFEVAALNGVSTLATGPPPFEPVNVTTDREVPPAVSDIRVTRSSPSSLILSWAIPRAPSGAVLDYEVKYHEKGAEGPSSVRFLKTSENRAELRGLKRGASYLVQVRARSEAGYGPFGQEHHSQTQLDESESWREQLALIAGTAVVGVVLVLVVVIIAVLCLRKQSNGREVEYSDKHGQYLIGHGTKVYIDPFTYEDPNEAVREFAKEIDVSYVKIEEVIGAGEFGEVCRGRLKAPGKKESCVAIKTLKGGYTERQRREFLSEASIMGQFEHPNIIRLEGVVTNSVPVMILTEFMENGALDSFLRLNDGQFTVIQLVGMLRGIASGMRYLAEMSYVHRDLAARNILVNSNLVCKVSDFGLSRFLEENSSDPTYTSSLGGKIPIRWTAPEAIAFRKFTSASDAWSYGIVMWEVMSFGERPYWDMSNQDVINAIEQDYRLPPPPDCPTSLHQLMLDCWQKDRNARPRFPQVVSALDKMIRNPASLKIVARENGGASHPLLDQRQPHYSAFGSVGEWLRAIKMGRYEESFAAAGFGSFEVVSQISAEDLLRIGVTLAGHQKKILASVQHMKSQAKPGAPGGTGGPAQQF
Put plainly: Displacement of biotinylated ephrin-B1-Fc from mouse EphB4 Fc preincubated for 1 hr followed by ephrin-B1-FC addition and measured after 4 hrs by ELISA.

As to `CCNC(=O)O[C@@H]1CC[C@@]2(C)[C@H](CC[C@@H]3[C@@H]2CC[C@]2(C)[C@@H]([C@H](C)CCC(=O)N[C@H](CC(=O)O)Cc4c[nH]c5ccccc45)CC[C@@H]32)C1`, the IC50 at Ephrin type-B receptor 3 was 11 µM; at Ephrin type-A receptor 3, 4.5 µM; on Ephrin type-B receptor 4, greater than 30 µM.
